Columns and labels:
morningglory [1] = assay: Test B pre-/postemergence herbicide test; type: in vivo, Ipomoea coccinea; settings: for Morningglory plant response rating: postemergence
In short: (§1)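 Evaluation is visual, comparing treated with control plants on a scale where 0 means no effect and 100 means full control. Treatments were preemergence, or postemergence on seedlings 2–18 cm tall, and held 13–15 days in the greenhouse.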

giant foxtail [2] = assay: Test A pre-/postemergence herbicide test; type: in vivo, Setaria faberi
In short: (§2)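 Sandy loam soil given preemergence directed spray; plants at 2 to 10 cm, one- to two-leaf stage, sprayed to runoff postemergence, compounds in non-phytotoxic solvent with surfactant. Injury rated visually versus untreated controls after about ten greenhouse days, 0 (no effect) to 100 (complete control); dash means not tested.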

cocklebur = assay: Test B pre-/postemergence herbicide test; type: in vivo, Xanthium strumarium; settings: for Cocklebur plant response rating: postemergence
In short: as §1

wheat = assay: Test B postemergence herbicide test; type: in vivo, Triticum aestivum; design: key to Wheat plant response rating: 0 = no effect, 100 = complete control; settings: postemergence
In short: (§3)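 Read-out: visual comparison with controls, scored 0 to 100, where 100 means complete control and 0 no effect. Formulated chemicals were applied postemergence to plants 2–18 cm tall (1- to 4-leaf), or to flooded-paddy plants at the 2-leaf stage, then held 13 to 15 days under glass.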

barnyardgrass [3] = assay: Test B flooded paddy test; type: in vivo, Echinochloa crus-galli; settings: 1000 g ai/ha, scale 0 to 100 (0 no effect, 100 complete control)
In short: (§4)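 Each value is a visual 0–100 response rating taken against controls 13 to 15 days after treatment in the greenhouse. Plants received formulated chemical postemergence at the 1- to 4-leaf stage or, in flooded paddy, at the 2-leaf stage.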

redroot pigweed = assay: Test A pre-/postemergence herbicide test; type: in vivo, Amaranthus retroflexus
In short: as §2

pigweed = assay: Test B pre-/postemergence herbicide test; type: in vivo, Amaranthus retroflexus; settings: for Pigweed plant response rating: postemergence
In short: (§5)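 Pre: seeds sown, then sprayed. Post: 1–4-leaf plants (2–18 cm) sprayed at the same time. Paddy: flooded, treated at 2-leaf stage. Formulation: non-phytotoxic solvent with surfactant. Greenhouse 13–15 days; visual 0–100 score relative to controls.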

[4] = test system: small flower umbrella sedge; assay: Test B flooded paddy test; type: in vivo, Cyperus difformis; settings: 1000 g ai/ha, scale 0 to 100 (0 no effect, 100 complete control)
In short: as §4

velvetleaf [5] = assay: Test A pre-/postemergence herbicide test; type: in vivo, Abutilon theophrasti
In short: as §2

ducksalad = assay: Test B flooded paddy test; type: in vivo, Heteranthera limosa; settings: 1000 g ai/ha, scale 0 to 100 (0 no effect, 100 complete control)
In short: as §4

blackgrass = assay: Test B postemergence herbicide test; type: in vivo, Alopecurus myosuroides; settings: postemergence
In short: as §4

velvetleaf [6] = assay: Test B pre-/postemergence herbicide test; type: in vivo, Abutilon theophrasti; settings: for Velvetleaf plant response rating: postemergence
In short: as §5

giant foxtail [7] = assay: Test B pre-/postemergence herbicide test; type: in vivo, Setaria faberi; settings: for Foxtail, Giant plant response rating: postemergence
In short: as §5

large crabgrass [8] = assay: Test A pre-/postemergence herbicide test; type: in vivo, Digitaria sanguinalis
In short: as §2

large crabgrass [9] = assay: Test B pre-/postemergence herbicide test; type: in vivo, Digitaria sanguinalis; settings: for Crabgrass, Large plant response rating: postemergence
In short: as §5

barnyardgrass [10] = assay: Test B pre-/postemergence herbicide test; type: in vivo, Echinochloa crus-galli; settings: for Barnyardgrass plant response rating: postemergence
In short: as §1

Surinam grass = assay: Test B pre-/postemergence herbicide test; type: in vivo, Urochloa decumbens; settings: for Surinam Grass plant response rating: postemergence
In short: as §5

rice = assay: Test B flooded paddy test; type: in vivo, Oryza sativa; settings: 1000 g ai/ha, scale 0 to 100 (0 no effect, 100 complete control)
In short: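 Plants grow to 1- to 4-leaf stage (2–18 cm) for postemergence spraying, or to 2-leaf stage for the paddy test. Formulated compound is applied. Greenhouse holding lasts 13–15 days. Response is scored visually relative to controls, 0 no effect to 100 complete control; a dash means no result.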

corn = assay: Test B pre-/postemergence herbicide test; type: in vivo, Zea mays; settings: for Corn plant response rating: postemergence
In short: as §5

barnyardgrass [11] = assay: Test A pre-/postemergence herbicide test; type: in vivo, Echinochloa crus-galli
In short: as §2

morningglory [12] = assay: Test A pre-/postemergence herbicide test; type: in vivo, Ipomoea spp.
In short: as §2

wild oat = assay: Test B postemergence herbicide test; type: in vivo, Avena fatua; settings: postemergence
In short: as §3

lambsquarters = assay: Test B pre-/postemergence herbicide test; type: in vivo, Chenopodium album; settings: for Lambsquarters plant response rating: postemergence
In short: as §5

[13] = 125 g ai/ha, 0 is no effect, 100 is complete control, preemergence
[14] = 125 g ai/ha, visual rating, scale 0 (no effect) to 100 (complete control)
[15] = 500 g ai/ha, visual rating, 0 = no effect, 100 = complete control, preemergence
[16] = 500 g ai/ha, scale 0 to 100, 0 is no effect, 100 is complete control
[17] = Postemergence, 500 g ai/ha, 0 to 100 scale, 0 no effect, 100 complete control
[18] = Postemergence, 2000 g ai/ha, 0 to 100 scale, 0 no effect, 100 complete control
[19] = Preemergence, 2000 g ai/ha, visual rating, 0 to 100 scale (0 no effect, 100 complete control)
[20] = preemergence, 500 g ai/ha, visual injury, 0 to 100 scale (0 no effect, 100 complete control)

CCc1nn(C2CCCC2)nc1C(=O)Nc1cccc(C(=O)N(C)C)c1 [Compound 355]
Plant response rating (0 to 100 scale), Morningglory (morningglory [1]; [13]): 10 | Morningglory plant response rating (morningglory [1]; [14]): 10 | Plant response rating, Morningglory (morningglory [1]; [15]): 10 | Morningglory plant response rating (morningglory [1]; [16]): 40 | Foxtail, Giant plant response rating (giant foxtail [2]; [17]): 10 | Plant response rating, Foxtail, Giant (giant foxtail [2]; [18]): 45 | Foxtail, Giant plant response rating (giant foxtail [2]; [19]): 60 | Foxtail, Giant plant response rating (giant foxtail [2]; [20]): 20 | Plant response rating (0 to 100 scale), Cocklebur (cocklebur; [13]): 0 | Cocklebur plant response rating (cocklebur; [14]): 0 | Plant response rating, Cocklebur (cocklebur; [15]): 10 | Cocklebur plant response rating (cocklebur; [16]): 10 | Wheat plant response rating (wheat; [14]): 0 | Wheat plant response rating (wheat; [16]): 20 | Barnyardgrass plant response rating (barnyardgrass [3]): 50 | Pigweed plant response rating (redroot pigweed; [17]): 40 | Plant response rating, Pigweed (redroot pigweed; [18]): 90 | Pigweed plant response rating (redroot pigweed; [19]): 50 | Pigweed plant response rating (redroot pigweed; [20]): 10 | Plant response rating (0 to 100 scale), Pigweed (pigweed; [13]): 50 | Pigweed plant response rating (pigweed; [14]): 20 | Plant response rating, Pigweed (pigweed; [15]): 100 | Pigweed plant response rating (pigweed; [16]): 50 | Sedge, Umbrella plant response rating [4]: 70 | Velvetleaf plant response rating (velvetleaf [5]; [17]): 15 | Plant response rating, Velvetleaf (velvetleaf [5]; [18]): 65 | Velvetleaf plant response rating (velvetleaf [5]; [19]): 55 | Velvetleaf plant response rating (velvetleaf [5]; [20]): 25 | Ducksalad plant response rating (ducksalad): 70 | Blackgrass plant response rating (blackgrass; [14]): 0 | Blackgrass plant response rating (blackgrass; [16]): 20 | Plant response rating (0 to 100 scale), Velvetleaf (velvetleaf [6]; [13]): 0 | Velvetleaf plant response rating (velvetleaf [6]; [14]): 30 | Velvetleaf plant response rating (velvetleaf [6]; [16]): 50 | Plant response rating (0 to 100 scale), Foxtail, Giant (giant foxtail [7]; [13]): 10 | Foxtail, Giant plant response rating (giant foxtail [7]; [14]): 20 | Plant response rating, Foxtail, Giant (giant foxtail [7]; [15]): 90 | Foxtail, Giant plant response rating (giant foxtail [7]; [16]): 30 | Crabgrass, Large plant response rating (large crabgrass [8]; [17]): 10 | Plant response rating, Crabgrass, Large (large crabgrass [8]; [18]): 30 | Crabgrass, Large plant response rating (large crabgrass [8]; [19]): 50 | Crabgrass, Large plant response rating (large crabgrass [8]; [20]): 20 | Plant response rating (0 to 100 scale), Crabgrass, Large (large crabgrass [9]; [13]): 70 | Crabgrass, Large plant response rating (large crabgrass [9]; [14]): 10 | Plant response rating, Crabgrass, Large (large crabgrass [9]; [15]): 100 | Crabgrass, Large plant response rating (large crabgrass [9]; [16]): 10 | Plant response rating (0 to 100 scale), Barnyardgrass (barnyardgrass [10]; [13]): 70 | Barnyardgrass plant response rating (barnyardgrass [10]; [14]): 0 | Plant response rating, Barnyardgrass (barnyardgrass [10]; [15]): 90 | Barnyardgrass plant response rating (barnyardgrass [10]; [16]): 10 | Plant response rating (0 to 100 scale), Surinam Grass (Surinam grass; [13]): 40 | Surinam Grass plant response rating (Surinam grass; [14]): 10 | Plant response rating, Surinam Grass (Surinam grass; [15]): 80 | Surinam Grass plant response rating (Surinam grass; [16]): 20 | Rice plant response rating (rice): 50 | Plant response rating (0 to 100 scale), Corn (corn; [13]): 20 | Corn plant response rating (corn; [14]): 0 | Plant response rating, Corn (corn; [15]): 60 | Corn plant response rating (corn; [16]): 0 | Barnyardgrass plant response rating (barnyardgrass [11]; [17]): 40 | Plant response rating, Barnyardgrass (barnyardgrass [11]; [18]): 75 | Barnyardgrass plant response rating (barnyardgrass [11]; [19]): 80 | Barnyardgrass plant response rating (barnyardgrass [11]; [20]): 50 | Morningglory plant response rating (morningglory [12]; [17]): 15 | Plant response rating, Morningglory (morningglory [12]; [18]): 75 | Morningglory plant response rating (morningglory [12]; [19]): 40 | Morningglory plant response rating (morningglory [12]; [20]): 10 | Oat, Wild plant response rating (wild oat; [14]): 0 | Oat, Wild plant response rating (wild oat; [16]): 30 | Plant response rating (0 to 100 scale), Lambsquarters (lambsquarters; [13]): 80 | Lambsquarters plant response rating (lambsquarters; [14]): 10 | Plant response rating, Lambsquarters (lambsquarters; [15]): 100 | Lambsquarters plant response rating (lambsquarters; [16]): 70
